The target in one data set is Substance-P receptor (Homo sapiens, UniProt P25103). Description: biochemical.
Data set [1] has as its system Cavia porcellus. As to the kind of experiment: Antagonist activity at NK1 receptor in po dosed Hartley guinea pig assessed as inhibition of GR73632-induced hypermotility measured after 0.75 hrs. It is filed as functional. The conditions noted are these: for ED50: Cavia porcellus, Hartley, po, 0.75 h, read-out: ID50 (the source's name).
A short description of the next data set: in vitro. The conditions noted are these: human, liver microsomes, Stability.
Data set [2] is filed under the species Cavia porcellus. Description: animal or person. The note with it: Hartley, po, 0.75 h, read-out: INH.
The next data set can be described thus: physchem. The conditions noted are these: buffer, pH 7.4.
Another data set has as its system Liver microsomes. The note with it: human, 1 µM.

Sequence of Substance-P receptor (P25103 whole entry): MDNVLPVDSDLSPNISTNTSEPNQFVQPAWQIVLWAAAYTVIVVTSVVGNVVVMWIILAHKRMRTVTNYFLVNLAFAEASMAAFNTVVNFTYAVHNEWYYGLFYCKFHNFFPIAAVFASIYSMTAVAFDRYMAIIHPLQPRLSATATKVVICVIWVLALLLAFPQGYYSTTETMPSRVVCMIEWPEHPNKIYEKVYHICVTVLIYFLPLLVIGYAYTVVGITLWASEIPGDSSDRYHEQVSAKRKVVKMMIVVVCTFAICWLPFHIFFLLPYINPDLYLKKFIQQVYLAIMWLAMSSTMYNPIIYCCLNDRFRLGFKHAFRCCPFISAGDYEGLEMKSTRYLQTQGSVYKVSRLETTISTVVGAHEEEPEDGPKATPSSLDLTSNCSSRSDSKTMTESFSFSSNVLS
Description for Liver microsomes: (§1) Metabolic stability in human liver microsomes at 1 uM
Description for Substance-P receptor: Displacement of [125I]BH-SP from NK1 receptor in human IM9 cells after 30 mins by scintillation counting
Description for in vitro: as §1
Description for physchem: Lipophilicity, log D of the compound at pH 7.4

For `COc1ccc(-n2nnnc2C(F)(F)F)cc1CN[C@@H]1CCN(C(=O)CNC(C)=O)C[C@@H]1c1ccccc1`, the IC50 (in general, the point on the concentration scale where inhibition reaches its midpoint) against Substance-P receptor is above 100 nM.
For `CCNC(=O)N1CC[C@H](NCc2cc(-n3nnnc3C(F)(F)F)ccc2OC)[C@H](c2ccccc2)C1.Cl` (racemic), the ED50 in the data set with Cavia porcellus [1] is 0.37 mg/kg. The same compound displayed an IC50 on Substance-P receptor of 0.039 nM. Moreover, in the data set “in vitro”, the microsomal CLint – broadly, the rate of metabolic loss divided by the concentration – at 1 µM amounted to 159 µL/min/mg. In the data set filed under Cavia porcellus [2], the inhibition in vivo at 1 mg/kg was 70%. Besides, the logD (as a rule, lipophilicity at a set pH, counting ionised and neutral species) in the data set “physchem” is 2.79.
Regarding `COc1ccc(OC(F)(F)F)cc1CN[C@H]1CCN(S(C)(=O)=O)C[C@H]1c1ccccc1` (racemic), the IC50 against Substance-P receptor was determined as 1.2 nM.
`CCNC(=O)N1CC[C@H](NCc2cc(OC(F)(F)F)ccc2OC)[C@H](c2ccccc2)C1` (racemic): the midpoint of inhibition against Substance-P receptor, the IC50, lay at 0.17 nM.
The same measure, in the same setting: in the case of `CCNC(=O)N1CC[C@@H](NCc2cc(OC(F)(F)F)ccc2OC)[C@H](c2ccccc2)C1` (racemic) it was 3.7 nM.
As for `COc1ccc(-n2nnnc2C(F)(F)F)cc1CN[C@H]1CCN(C(=O)N(C)C)C[C@H]1c1ccccc1` (racemic), the IC50 on Substance-P receptor stood at 0.13 nM. Moreover, the microsomal CLint at 1 µM in “in vitro” was found to be 213 µL/min/mg. For the same compound, the inhibition in vivo at 1 mg/kg in the data set filed under Cavia porcellus [2] is 90%. The compound further had a logD in “physchem” of 3.18.
On Substance-P receptor, `COC(=O)N1CC[C@H](NCc2cc(OC(F)(F)F)ccc2OC)[C@H](c2ccccc2)C1` (racemic) had a 50% inhibitory concentration (IC50) of 0.31 nM.
On the same count and under the same terms, then `CCN1CC[C@H](NCc2cc(OC(F)(F)F)ccc2OC)[C@H](c2ccccc2)C1` (racemic), with 4.8 nM; and `CCN1CC[C@H](NCc2cc(-n3nnnc3C(F)(F)F)ccc2OC)[C@H](c2ccccc2)C1` (racemic), with 1.9 nM.
Take `COc1ccc(-n2nnnc2C(F)(F)F)cc1CN[C@H]1CCN(S(C)(=O)=O)C[C@H]1c1ccccc1` (racemic): at Substance-P receptor, half-maximal inhibition (IC50) was put at 0.075 nM. Besides, the microsomal CLint at 1 µM in “in vitro” is 144 µL/min/mg. Besides, the inhibition in vivo at 1 mg/kg in the data set listed under Cavia porcellus [2] turned out to be 18%.
Consider `COc1ccc(-n2nnnc2C(F)(F)F)cc1CN[C@@H]1CCN(C(=O)CNC(C)=O)C[C@H]1c1ccccc1` (racemic), for which 0.2 nM corresponded to half-maximal inhibition against Substance-P receptor (IC50). For the same compound, in “in vitro”, the intrinsic clearance (microsomal CLint) at 1 µM amounted to 34 µL/min/mg.
Turning to `COc1ccc(-n2nnnc2C(F)(F)F)cc1CN[C@H]1CCN(C(C)=O)C[C@H]1c1ccccc1.Cl` (racemic), the ED50 in the data set with Cavia porcellus [1] worked out at 0.2 mg/kg. The compound also showed a 50% inhibitory concentration (IC50) on Substance-P receptor of 0.049 nM. Besides, in the data set “in vitro”, the intrinsic metabolic clearance (microsomal CLint) at 1 µM is 111 µL/min/mg. Also, the inhibition in vivo at 1 mg/kg in the data set filed under Cavia porcellus [2] is 82%. The logD in “physchem” was 2.69.
In the case of `CCNC(=O)N1CC[C@H](NCc2cc(-n3nnnc3C(F)(F)F)cc3c2OCC3)[C@H](c2ccccc2)C1` (racemic), the IC50 on Substance-P receptor is 0.093 nM. This compound returned a microsomal CLint at 1 µM in the data set “in vitro” of 160 µL/min/mg. In the data set listed under Cavia porcellus [2], the inhibition in vivo at 1 mg/kg was determined as 57%.
On to `COc1ccc(-n2nnnc2C(F)(F)F)cc1CN[C@H]1CCN(C(=O)CCNC(C)=O)C[C@H]1c1ccccc1.Cl` (racemic), for which the ED50 in the data set with Cavia porcellus [1] amounted to 0.34 mg/kg. Also, at Substance-P receptor, the IC50 came out at 0.054 nM. In “in vitro”, this compound gave a microsomal CLint at 1 µM of 95 µL/min/mg. Moreover, in the data set filed under Cavia porcellus [2], the inhibition in vivo at 1 mg/kg amounted to 79%. In addition, the pH-dependent lipophilicity (logD) in the data set “physchem” was 2.35.
`COc1ccc(OC(F)(F)F)cc1CN[C@H]1CCN(C(C)=O)C[C@H]1c1ccccc1` (racemic): the IC50 against Substance-P receptor came to 0.16 nM.
Regarding `COc1ccc(-n2nnnc2C(F)(F)F)cc1CN[C@H]1CCN(C(=O)C2CCN(C(C)=O)CC2)C[C@H]1c1ccccc1.Cl` (racemic), the ED50 in the data set with Cavia porcellus [1] was found to be 0.33 mg/kg. At Substance-P receptor, this compound registered a half-inhibitory concentration (IC50) of 0.1 nM. This compound displayed an intrinsic clearance (microsomal CLint) at 1 µM in “in vitro” of 76 µL/min/mg. Moreover, the inhibition in vivo at 1 mg/kg in the data set listed under Cavia porcellus [2] was 85%. Besides, in “physchem”, the pH-dependent lipophilicity (logD) was 2.51.
Consider `COc1ccc(-n2nnnc2C(F)(F)F)cc1CN[C@H]1CCN(C(=O)CNC(C)=O)C[C@H]1c1ccccc1` (racemic), for which the ID50 in the data set with Cavia porcellus [1] was 0.26 mg/kg. Also, the IC50 against Substance-P receptor was 0.073 nM. Besides, the Stability in the data set with Liver microsomes came out at 32 µL/min/mg. The inhibition in vivo at 1 mg/kg in the data set filed under Cavia porcellus [2] was 99%. The logD in the data set “physchem” was determined as 2.28.
At Substance-P receptor, `CCNC(=O)N1CC[C@H](NCc2cc(-n3nnnc3C(F)(F)F)ccc2OC2CC2)[C@H](c2ccccc2)C1` (racemic) showed a half-inhibitory concentration (IC50) of 0.044 nM. The compound also showed an intrinsic clearance (microsomal CLint) at 1 µM in “in vitro” of 217 µL/min/mg. In the data set listed under Cavia porcellus [2], the inhibition in vivo at 1 mg/kg is 94%.
Turning to `CCNC(=O)N1CC[C@H](NCc2cc(-n3nnnc3C(F)(F)F)ccc2OCC)[C@H](c2ccccc2)C1` (racemic), on Substance-P receptor, the IC50 is 0.086 nM. In the data set “in vitro”, this compound returned a microsomal CLint at 1 µM of 218 µL/min/mg. Also, in the data set listed under Cavia porcellus [2], the inhibition in vivo at 1 mg/kg amounted to 35%.
Compound `COc1ccc(OC(F)(F)F)cc1CN[C@H]1CCNC[C@H]1c1ccccc1` (racemic) yielded an IC50 against Substance-P receptor of 8.4 nM.
As to `COc1ccc(-n2nnnc2C(F)(F)F)cc1CN[C@H]1CCN(C(=O)CN(C)C(C)=O)C[C@H]1c1ccccc1` (racemic), the IC50 at Substance-P receptor turned out to be 0.084 nM. In the data set “in vitro”, the microsomal CLint at 1 µM was found to be 73 µL/min/mg. Moreover, the inhibition in vivo at 1 mg/kg in the data set listed under Cavia porcellus [2] is 74%. In the data set “physchem”, this compound had a log distribution coefficient (logD) of 2.31.
For `COc1ccc(-n2nnnc2C(F)(F)F)cc1CN[C@H]1CCN(C(=O)NCC(F)(F)F)C[C@H]1c1ccccc1` (racemic), in that order: 0.057 nM, 155 µL/min/mg, 65% and 3.03.
For `COc1ccc(-n2nnnc2C(F)(F)F)cc1CN[C@H]1CCN(C(=O)NC(C)C)C[C@H]1c1ccccc1` (racemic), in that order: 0.081 nM, 167 µL/min/mg, 66% and 3.09.
As to `COc1ccc(-n2nnnc2C(F)(F)F)cc1CN[C@H]1CCNC[C@H]1c1ccccc1` (racemic), the IC50 against Substance-P receptor is 1.4 nM.
For `COc1ccc(-n2nnnc2C(F)(F)F)cc1CN[C@H]1CCN(C(=O)CNC(C)=O)C[C@H]1c1ccccc1`, the ID50 in the data set with Cavia porcellus [1] stood at 0.066 mg/kg. Besides, the Stability with Liver microsomes came to 8 µL/min/mg.
For `COc1ccc(-n2nnnc2C(F)(F)F)cc1CN[C@H]1CCN(C(=O)C2CN(C(C)=O)C2)C[C@H]1c1ccccc1` (racemic), the IC50 at Substance-P receptor stood at 0.057 nM. In “in vitro”, this compound gave a microsomal CLint at 1 µM of 27 µL/min/mg. Besides, in the data set filed under Cavia porcellus [2], the inhibition in vivo at 1 mg/kg worked out at 32%. In addition, in “physchem”, the log distribution coefficient (logD) worked out at 2.31.
Regarding `COC(=O)N1CC[C@H](NCc2cc(-n3nnnc3C(F)(F)F)ccc2OC)[C@H](c2ccccc2)C1` (racemic), on Substance-P receptor, the IC50 stood at 0.054 nM. Also, the intrinsic metabolic clearance (microsomal CLint) at 1 µM in the data set “in vitro” was determined as 199 µL/min/mg. The inhibition in vivo at 1 mg/kg in the data set listed under Cavia porcellus [2] came to 65%.
In turn, `COc1ccc(-n2nnnc2C(F)(F)F)cc1CN[C@H]1CCN(C(=O)CCCNC(C)=O)C[C@H]1c1ccccc1` (racemic) registered an IC50 at Substance-P receptor of 0.025 nM. In “in vitro”, this compound gave a microsomal CLint at 1 µM of 146 µL/min/mg. Further, the log distribution coefficient (logD) in “physchem” is 2.43.

The values are drawn from ChEMBL document CHEMBL1914286, “Design, structure-activity relationship, and highly efficient asymmetric synthesis of 3-phenyl-4-benzylaminopiperidine derivatives as novel neurokinin-1 receptor antagonists” (Bioorg Med Chem, 2011).
